Measured values taken from patent US20220331298A1, “TREATMENT OF FRAGILE X SYNDROME WITH IBUDILAST IN COMBINATION WITH METFORMIN, CANNBIDIOL, SERTRALINE OR QUERCETIN” (priority 2019, published 2022).

Key:
Type in all cases: in vivo
Fmr1 KO2 mice [1] = assay: Behavioral testing (all behavioural tests together)
Source text: (§1) Fmr1 knockout 2 (Fmr1 KO2) mice were generated by deletion of the promoter and first exon of Fmr1. The Fmr1 KO2 it is both, protein and mRNA null. In this study we used Fmr1 KO2 and wild-type (WT) littermates generated on a C57BL/6J background and repeatedly backcrossed onto a C57BL/6J background for more than eight generations.
(§2) There were five treatment groups per compound in the study with 10 male mice used per treatment group (all at 8 weeks of age): Group 1: wild-type littermate mice treated with vehicle (WT-Veh), Group 2: Fmr1 KO2 mice treated with vehicle (KO-Veh), Group 3: Fmr1 KO2 mice treated with ibudilast (KO-ibudilast); Group 4: Fmr1 KO2 mice treated with compound A (KO-[compound A]); Group 5: Fmr1 KO2 mice treated with ibudilast and compound A (KO-ibu/[compound A].
For experiments, all mice were tested once in the same apparatus. Prior to testing, mice were placed in the apparatus for some minutes before the experiment. The apparatus was cleaned with moist and dry tissues before testing each mouse. The aim was to create a low but constant background mouse odor for all experimental subjects. Testers were blind to the genotype and treatment during all testing and data analysis. We assessed weight loss, fur loss, walking, eyes open, eye discharges and general behavior.
(§3) Data were analyzed by one-way ANOVA with a Dunnett's multiple comparison post hoc test in which WT Vehicle group was used as reference and compared with all the other groups

Fmr1 KO2 mice [2] = assay: Nesting
Source text: (§4) The Fmr1 KO2 it is both, protein and mRNA null. In this study we used Fmr1 KO2 and wild-type (WT) littermates generated on a C57BL/6J background and repeatedly backcrossed onto a C57BL/6J background for more than eight generations. There were five treatment groups per compound in the study with 10 male mice used per treatment group (all at 8 weeks of age): Group 1: wild-type littermate mice treated with vehicle (WT-Veh), Group 2: Fmr1 KO2 mice treated with vehicle (KO-Veh), Group 3: Fmr1 KO2 mice treated with ibudilast (KO-ibudilast); Group 4: Fmr1 KO2 mice treated with compound A (KO-[compound A]); Group 5: Fmr1 KO2 mice treated with ibudilast and compound A (KO-ibu/[compound A]. For experiments, all mice were tested once in the same apparatus. Prior to testing, mice were placed in the apparatus for some minutes before the experiment. The apparatus was cleaned with moist and dry tissues before testing each mouse. The aim was to create a low but constant background mouse odor for all experimental subjects. Testers were blind to the genotype and treatment during all testing and data analysis. We assessed weight loss, fur loss, walking, eyes open, eye discharges and general behavior. […] Mice were placed individually into the nesting cages 1 hr. before the dark phase, and the results were assessed the next morning. Nest building was scored on a 5 point scale. […]

Fmr1 KO2 mice [3] = assay: Open field (hyperactivity)
Source text: as §1, §2
(§5) For experiments, all mice were tested once in the same apparatus. […] We assessed weight loss, fur loss, walking, eyes open, eye discharges and general behavior.
The open-field apparatus was used to test hyperactivity. […] The number of squares entered by the whole body (locomotor activity) was counted. The movement of the mouse around the field was recorded with a video tracking device for 3 min (version NT4.0, Viewpoint).
as §3

Fmr1 KO2 mice [4] = assay: Fear conditioning
Source text: as §4, with “The dependent measure used in contextual fear conditioning” for “Mice were placed individually into the nesting cages 1 hr. before the dark phase, and the results were assessed the next morning. Nest building”, “was” for “was scored on”, “freezing response following a pairing of an unconditioned stimulus (foot shock), with a conditioned stimulus, a particular context.” for “5 point scale.”

Fmr1 KO2 mice [5] = assay: Social interaction (three-chambered sociability task)
Source text: as §1, §2, §5
In the three-chambered sociability task, a subject mouse was evaluated for its exploration of a novel social stimulus (novel mouse). […] The time spent exploring the novel mice was scored as exploration ratio.
as §3

In the case of `O=c1c(O)c(-c2ccc(O)c(O)c2)oc2cc(O)cc(O)c12` [quercetin], the “effect of the amount given alone in the behavioural tests” value (shortened to “effect of the amount given alone”) (Fmr1 KO2 mice [1]; quercetin alone 5 mg/kg, FIG. 6) is reported as “ineffective”.

With `CN(C)C(=N)N=C(N)N` [metformin] the “effect of the amount given alone” value (Fmr1 KO2 mice [1]; metformin alone 25 mg/kg, FIG. 4) was “ineffective”.

For `CC(C)C(=O)c1c(C(C)C)nn2ccccc12` [ibudilast, 2-methyl-1-(2-propan-2-ylpyrazolo[1,5-a]pyridin-3-yl)propan-1-one], the nesting rescue (Fmr1 KO2 mice [2]; ibudilast 3 mg/kg, FIG. 1) was “inactive”, the nesting rescue (Fmr1 KO2 mice [2]; ibudilast 12 mg/kg, FIG. 2) was “fully rescued” and the “open field (hyperactivity) rescue” value (Fmr1 KO2 mice [3]; ibudilast 3 mg/kg, FIG. 1) was “inactive”. The “open field (hyperactivity) rescue” value (Fmr1 KO2 mice [3]; ibudilast 12 mg/kg, FIG. 2) was “fully rescued”, the “effect of the amount given alone” value (Fmr1 KO2 mice [1]; ibudilast alone 3 mg/kg) was “ineffective” and the fear conditioning rescue (Fmr1 KO2 mice [4]; ibudilast 3 mg/kg, FIG. 1) was “partially rescued”. For the same molecule, the fear conditioning rescue (Fmr1 KO2 mice [4]; ibudilast 12 mg/kg, FIG. 2) was “fully rescued”, the sociability rescue (Fmr1 KO2 mice [5]; ibudilast 3 mg/kg, FIG. 1) was “inactive” and the sociability rescue (Fmr1 KO2 mice [5]; ibudilast 12 mg/kg, FIG. 2) was “fully rescued”.

In the case of `C=C(C)[C@@H]1CCC(C)=C[C@H]1c1c(O)cc(CCCCC)cc1O` [cannabidiol], the “effect of the amount given alone” value (Fmr1 KO2 mice [1]; cannabidiol alone 5 mg/kg, FIG. 5) is reported as “ineffective”.

For `CN[C@H]1CC[C@@H](c2ccc(Cl)c(Cl)c2)c2ccccc21` [sertraline], the “effect of the amount given alone” value (Fmr1 KO2 mice [1]; sertraline alone 1 mg/kg, FIG. 3) was “ineffective”.
